The source of these data is ChEMBL document CHEMBL1147337, “A new bastadin from the sponge Psammaplysilla purpurea” (J Nat Prod, 1993).

In assay [1] the test system is HT-29. Briefly: Cytotoxicity against human HT-29 cells. Format: functional, cell-based.
The nature of assay [2]: Cytotoxicity against african green monkey CV1 cells. Format: cell-based. The note with it: Chlorocebus aethiops, CV-1.
Assay [3] has as its system A549. As to the kind of experiment: Cytotoxicity against human A549 cells. Format: functional, cell-based.
In assay [4] the target is DNA topoisomerase 2-alpha (Homo sapiens, UniProt P11388). Briefly: Inhibition of topoisomerase 2.
Sequence of DNA topoisomerase 2-alpha (P11388 whole entry): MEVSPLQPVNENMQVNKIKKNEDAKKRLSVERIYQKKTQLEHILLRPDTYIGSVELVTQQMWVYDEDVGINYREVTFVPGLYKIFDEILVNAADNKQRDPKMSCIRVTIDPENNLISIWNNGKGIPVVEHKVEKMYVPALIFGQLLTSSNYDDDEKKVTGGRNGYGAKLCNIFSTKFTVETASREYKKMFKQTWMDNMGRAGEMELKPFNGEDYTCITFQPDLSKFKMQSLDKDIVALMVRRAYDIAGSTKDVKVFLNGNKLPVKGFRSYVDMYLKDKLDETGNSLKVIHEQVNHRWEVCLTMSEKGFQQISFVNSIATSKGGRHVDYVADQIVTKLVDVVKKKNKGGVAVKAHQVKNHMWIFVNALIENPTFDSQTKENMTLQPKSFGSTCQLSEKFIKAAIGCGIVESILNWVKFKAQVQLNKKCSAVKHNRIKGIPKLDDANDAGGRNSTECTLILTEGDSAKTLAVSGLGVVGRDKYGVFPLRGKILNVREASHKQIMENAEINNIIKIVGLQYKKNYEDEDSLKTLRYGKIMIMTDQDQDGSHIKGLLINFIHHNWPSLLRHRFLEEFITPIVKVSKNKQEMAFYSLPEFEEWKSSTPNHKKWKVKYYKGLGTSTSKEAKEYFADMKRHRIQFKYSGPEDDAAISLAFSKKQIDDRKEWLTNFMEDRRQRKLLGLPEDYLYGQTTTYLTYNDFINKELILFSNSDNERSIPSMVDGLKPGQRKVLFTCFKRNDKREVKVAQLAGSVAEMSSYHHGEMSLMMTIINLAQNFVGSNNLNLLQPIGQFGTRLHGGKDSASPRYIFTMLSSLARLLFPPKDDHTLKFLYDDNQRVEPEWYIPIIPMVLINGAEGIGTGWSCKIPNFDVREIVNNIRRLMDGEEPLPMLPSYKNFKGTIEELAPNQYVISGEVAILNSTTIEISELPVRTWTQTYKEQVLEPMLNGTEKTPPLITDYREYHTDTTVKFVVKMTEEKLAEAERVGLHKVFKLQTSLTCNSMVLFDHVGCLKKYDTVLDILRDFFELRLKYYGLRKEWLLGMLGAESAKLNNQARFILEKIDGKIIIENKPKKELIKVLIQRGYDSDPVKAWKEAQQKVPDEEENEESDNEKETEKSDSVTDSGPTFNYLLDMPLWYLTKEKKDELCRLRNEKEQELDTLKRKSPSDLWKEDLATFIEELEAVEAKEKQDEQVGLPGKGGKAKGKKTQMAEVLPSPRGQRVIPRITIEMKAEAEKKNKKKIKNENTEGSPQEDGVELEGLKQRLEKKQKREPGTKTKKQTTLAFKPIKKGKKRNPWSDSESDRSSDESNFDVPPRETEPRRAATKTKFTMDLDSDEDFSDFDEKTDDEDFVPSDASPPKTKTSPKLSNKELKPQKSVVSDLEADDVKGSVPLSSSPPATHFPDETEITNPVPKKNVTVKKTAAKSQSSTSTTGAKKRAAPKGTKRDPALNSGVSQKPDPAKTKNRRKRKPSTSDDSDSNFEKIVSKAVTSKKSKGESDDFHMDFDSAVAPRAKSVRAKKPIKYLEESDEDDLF
Assay [5] relates to P388. As to the kind of experiment: Cytotoxicity against mouse P388 cells. Format: functional, cell-based.
Assay [6] deals with T1, Dihydrofolate reductase (Homo sapiens, UniProt P00374).
T1 sequence (P00374 whole entry): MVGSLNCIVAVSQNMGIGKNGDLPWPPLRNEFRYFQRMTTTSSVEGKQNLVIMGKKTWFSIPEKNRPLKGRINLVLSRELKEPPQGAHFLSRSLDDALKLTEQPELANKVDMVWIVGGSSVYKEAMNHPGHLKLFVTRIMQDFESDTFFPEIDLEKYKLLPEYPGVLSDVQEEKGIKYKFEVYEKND
As to the kind of experiment: Inhibition of DHFR.

≈ marks a conversion by molar mass, not a printed value.

As usually defined, the IC50 is the concentration at which inhibition is half-maximal. `O=C1N/C=C/c2cc(Br)c(c(Br)c2)Oc2cc(cc(Br)c2O)CCNC(=O)/C(=N/O)Cc2ccc(c(Br)c2)Oc2cc(cc(Br)c2O)C/C1=N\O` [BASTADIN 14]: the IC50 in assay [1] is 2 µg/mL (≈ 1.97 µM); in assay [2], 2.5 µg/mL (≈ 2.46 µM); in assay [3], 2 µg/mL (≈ 1.97 µM); in assay [4], 1970 nM; in assay [5], 2 µg/mL (≈ 1.97 µM); in assay [6] it was 2460 nM.
